According to ChEMBL document CHEMBL4831504, “Rearranged Diels-Alder Adducts and Prenylated Flavonoids as Potential PTP1B Inhibitors from Morus nigra” (J Nat Prod, 2021):

Legend:
[1] = target: T1, Tyrosine-protein phosphatase non-receptor type 1 (Homo sapiens) (UniProt P18031); experiment: Inhibition of recombinant PTP1B catalytic domain (unknown origin) assessed as reduction in pNP formation using pNPP as substrate at 20 ug/ml by absorbance based analysis relative to control; conditions: dose 20.0 µg/ml
T1 sequence (whole entry): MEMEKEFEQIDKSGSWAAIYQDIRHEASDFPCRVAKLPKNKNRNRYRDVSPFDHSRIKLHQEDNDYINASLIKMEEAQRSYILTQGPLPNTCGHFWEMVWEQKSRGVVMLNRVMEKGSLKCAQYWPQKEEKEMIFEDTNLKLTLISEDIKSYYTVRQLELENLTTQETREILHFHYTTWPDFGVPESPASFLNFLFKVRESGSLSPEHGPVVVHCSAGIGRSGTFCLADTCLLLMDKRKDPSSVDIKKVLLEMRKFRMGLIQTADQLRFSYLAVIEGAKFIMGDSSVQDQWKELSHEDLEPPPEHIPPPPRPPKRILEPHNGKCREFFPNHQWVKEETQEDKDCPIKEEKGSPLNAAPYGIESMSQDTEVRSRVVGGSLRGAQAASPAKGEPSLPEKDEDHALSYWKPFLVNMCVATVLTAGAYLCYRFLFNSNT

[2] = target: T2, Tyrosine-protein phosphatase non-receptor type 1 (Homo sapiens, UniProt P18031); experiment: Inhibition of recombinant PTP1B catalytic domain (unknown origin) assessed as reduction in pNP formation using pNPP as substrate by absorbance based analysis
T2 sequence (P18031 whole entry): T1 sequence (whole entry)

SMILES | inhibition [1] [%] | IC50 [2] [µM]
CC(C)=CCc1c(-c2ccc(O)cc2O)oc2c3c(cc(O)c2c1=O)OC(C)(C)C=C3 [MORUSIN] | 71.5 | 22.1
CC(C)=CCc1c(-c2ccc(O)cc2O)oc2cc3c(c(O)c2c1=O)C=CC(C)(C)O3 [CUDRAFLAVONE B] | 70.9 | 20
CC(C)=C[C@H]1Oc2cc(O)ccc2-c2oc3cc(O)ccc3c(=O)c21 | 45.4 | ≥ 50
CC1(C)Oc2cc3oc(-c4cc(O)cc(O)c4)cc3cc2CC1O (stereo not drawn) [(+/-)-MORACIN P] | 39.1 | ≥ 50
CC(C)=CCc1cc(-c2oc3cc(O)cc(O)c3c(=O)c2CC=C(C)C)c(O)cc1O | 77.6 | 12.5

These reach a lower IC50 [2]. Values come first.

inhibition [1] [%] | IC50 [2] [µM] | SMILES
90.6 | 10.2 | CC(C)=CCc1c(O)cc(-c2cc3ccc(O)cc3o2)cc1O [MORACIN C]
93.3 | 7.7 | CC(C)=CCc1cc(-c2oc3c(CC=C(C)C)c(O)cc(O)c3c(=O)c2CC=C(C)C)c(O)cc1O
95.8 | 5.3 | CC(C)=CCC/C(C)=C/Cc1c(O)cc(O)c2c(=O)c(CC=C(C)C)c(-c3ccc(O)cc3O)oc12
97 | 1.8 | CC(C)=CCc1c(O)ccc(C(=O)Oc2cc(/C=C/c3ccc(O)cc3O)cc(O)c2-c2cc(C)cc(-c3ccc(O)cc3O)c2)c1O
99.2 | 1.3 | CC(C)=CCc1c(O)ccc(C(=O)Oc2cc(-c3cc4ccc(O)cc4o3)cc(O)c2-c2cc(C)cc(-c3ccc(O)cc3O)c2)c1O
